Where two headings read alike, the source gives them in different places.
Molecular target: T1, TNFα / TNFα receptor (TNFα R1/Fc) (Homo sapiens, UniProt P01375)
T1 construct: purchased R&D Systems
Test: Inhibition of binding of TNFα to the TNFα receptor (plate ELISA competition)
Details: Table 2
Summary of the method: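 Plates were coated with TNFα at 15 nM. Test compound and 8.33 nM receptor-Fc (PBST, 2% DMSO) were first mixed in solution for 30 min at room temperature, then transferred to the plates for another 30 min. Competition was read by absorbance at 450 nm after HRP anti-human IgG Fc detection with TMB.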

[1] = Activity (IC50, inhibition of TNFα binding to TNFα R1/Fc)
[2] = read-out: Activity (IC50, inhibition of TNFα binding to TNFα R1/Fc)

T1 sequence (P01375 77-233 limits assumed, species assumed): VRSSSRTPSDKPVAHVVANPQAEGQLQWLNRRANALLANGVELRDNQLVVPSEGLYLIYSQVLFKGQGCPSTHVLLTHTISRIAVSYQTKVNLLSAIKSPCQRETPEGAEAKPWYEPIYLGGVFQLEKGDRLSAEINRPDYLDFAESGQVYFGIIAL

| IC50 [2] [µM] | SMILES | IC50 [1] [µM] |
| --- | --- | --- |
|  | C[C@@H](C(=O)O)N(C)C(=O)[C@@H]1Cc2ccc(cc2)OCC(=O)N[C@@H](Cc2cccs2)C(=O)N[C@H](Cc2ccc(-c3ccccc3)cc2)C(=O)N[C@@H](CCc2ccccc2)C(=O)N1 [Compound 575] | < 10 |
|  | C[C@H](C(=O)O)N(C)C(=O)[C@@H]1Cc2ccc(cc2)OCC(=O)N[C@@H](Cc2cccs2)C(=O)N[C@H](Cc2ccc(-c3ccccc3)cc2)C(=O)N[C@@H](CCc2ccccc2)C(=O)N1 [Compound 576] | < 10 |
| < 10 | C[C@@H](NC(=O)[C@@H]1Cc2ccc(cc2)OCC(=O)N[C@@H](Cc2ccc(-c3ccccc3)cc2)C(=O)N[C@H](Cc2ccc(-c3ccccc3)cc2)C(=O)N[C@@H](CCc2ccccc2)C(=O)N1)C(=O)O [Compound 577] |  |
| > 100 | O=C1COc2ccc(cc2)C[C@@H](C(=O)NCCO)NC(=O)[C@H](CCc2ccccc2)NC(=O)[C@@H](Cc2ccc(-c3ccccc3)cc2)NC(=O)[C@H](Cc2ccncc2)N1 [Compound 578] |  |
| < 10 | O=C(O)CCNC(=O)[C@@H]1Cc2ccc(cc2)OCC(=O)N[C@@H](Cc2ccc(-c3ccncc3)cc2)C(=O)N[C@H](Cc2ccc(-c3ccccc3)cc2)C(=O)N[C@@H](CCc2ccccc2)C(=O)N1 [Compound 579] |  |
| < 10 | O=C(O)CCCNC(=O)[C@@H]1Cc2ccc(cc2)OCC(=O)N[C@@H](Cc2ccc(-c3ccncc3)cc2)C(=O)N[C@H](Cc2ccc(-c3ccccc3)cc2)C(=O)N[C@@H](CCc2ccccc2)C(=O)N1 [Compound 580] |  |
| < 10 | O=C1COc2ccc(cc2)C[C@@H](C(=O)N[C@@H](Cc2ccccc2)C(=O)O)NC(=O)[C@H](CCc2ccccc2)NC(=O)[C@@H](Cc2ccc(-c3ccccc3)cc2)NC(=O)[C@H](Cc2ccc(-c3ccncc3)cc2)N1 [Compound 581] |  |
| < 10 | O=C1COc2ccc(cc2)C[C@@H](C(=O)N[C@H](Cc2ccccc2)C(=O)O)NC(=O)[C@H](CCc2ccccc2)NC(=O)[C@@H](Cc2ccc(-c3ccccc3)cc2)NC(=O)[C@H](Cc2ccc(-c3ccncc3)cc2)N1 [Compound 582] |  |
| < 10 | O=C1COc2ccc(cc2)C[C@@H](C(=O)N[C@@H](CO)C(=O)O)NC(=O)[C@H](CCc2ccccc2)NC(=O)[C@@H](Cc2ccc(-c3ccccc3)cc2)NC(=O)[C@H](Cc2ccc(-c3ccncc3)cc2)N1 [Compound 583] |  |
| < 10 | O=C1COc2ccc(cc2)C[C@@H](C(=O)N[C@H](CO)C(=O)O)NC(=O)[C@H](CCc2ccccc2)NC(=O)[C@@H](Cc2ccc(-c3ccccc3)cc2)NC(=O)[C@H](Cc2ccc(-c3ccncc3)cc2)N1 [Compound 584] |  |
| < 10 | O=C1COc2ccc(cc2)C[C@@H](C(=O)N[C@@H](Cc2ccc(O)cc2)C(=O)O)NC(=O)[C@H](CCc2ccccc2)NC(=O)[C@@H](Cc2ccc(-c3ccccc3)cc2)NC(=O)[C@H](Cc2ccc(-c3ccncc3)cc2)N1 [Compound 585] |  |
| < 10 | O=C1COc2ccc(cc2)C[C@@H](C(=O)N[C@H](Cc2ccc(O)cc2)C(=O)O)NC(=O)[C@H](CCc2ccccc2)NC(=O)[C@@H](Cc2ccc(-c3ccccc3)cc2)NC(=O)[C@H](Cc2ccc(-c3ccncc3)cc2)N1 [Compound 586] |  |
| < 10 | O=C1COc2ccc(cc2)C[C@@H](C(=O)N[C@H](Cc2ccccc2)C(=O)O)NC(=O)[C@H](Cc2ccccc2F)NC(=O)[C@@H](Cc2ccc(-c3ccccc3)cc2)NC(=O)[C@H](Cc2cccs2)N1 [Compound 587] |  |
|  | O=C1COc2ccc(cc2)C[C@@H](C(=O)N[C@H](Cc2ccccc2)C(=O)O)NC(=O)[C@H](Cc2cccs2)NC(=O)[C@@H](Cc2ccc(-c3ccccc3)cc2)NC(=O)[C@H](Cc2cccs2)N1 [Compound 588] | < 10 |
|  | O=C1COc2ccc(cc2)C[C@@H](C(=O)N[C@@H](Cc2ccccc2)c2nnn[nH]2)NC(=O)[C@H](Cc2ccccc2)NC(=O)[C@@H](Cc2ccc(-c3ccccc3)cc2)NC(=O)[C@H](Cc2cccs2)N1 [Compound 590] | < 10 |
|  | O=C1COc2ccc(cc2)C[C@@H](C(=O)NCc2nnn[nH]2)NC(=O)[C@H](Cc2ccccc2)NC(=O)[C@@H](Cc2ccc(-c3ccccc3)cc2)NC(=O)[C@H](Cc2cccs2)N1 [Compound 591] | < 10 |
| < 10 | O=C1COc2ccc(cc2)C[C@@H](C(=O)N[C@@H](Cc2ccccc2)c2nnn[nH]2)NC(=O)[C@H](CCc2ccccc2)NC(=O)[C@@H](Cc2ccc(-c3ccccc3)cc2)NC(=O)[C@H](Cc2ccncc2)N1 [Compound 592] |  |
| < 10 | O=C(NCS(=O)(=O)O)[C@@H]1Cc2ccc(cc2)NC(=O)[C@H](O)[C@@H](O)C(=O)N[C@H](Cc2cccs2)C(=O)N[C@@H](Cc2ccc(-c3ccccc3)cc2)C(=O)N[C@H](CCc2ccccc2)C(=O)N1 [Compound 593] |  |
| < 10 | O=C1COc2ccc(cc2)C[C@@H](C(=O)NCCCS(=O)(=O)O)NC(=O)[C@H](CCc2ccccc2)NC(=O)[C@@H](Cc2ccc(-c3ccccc3)cc2)NC(=O)[C@H](Cc2ccncc2)N1 [Compound 599] |  |
| 10 to 30 | CS(=O)(=O)NC(=O)[C@@H]1Cc2ccc(cc2)OCC(=O)N[C@@H](Cc2ccncc2)C(=O)N[C@H](Cc2ccc(-c3ccccc3)cc2)C(=O)N[C@@H](CCc2ccccc2)C(=O)N1 [Compound 600] |  |
| > 100 | O=C1COc2ccc(cc2)C[C@@H](C(=O)NCCCS(=O)(=O)O)NC(=O)[C@H](CCc2ccccc2)NC(=O)[C@@H](Cc2ccc(-c3ccccc3)cc2)NC(=O)[C@H](Cc2cccs2)N1 [Compound 603] |  |

| IC50 [2] [µM] | SMILES | IC50 [1] [µM] |
| --- | --- | --- |
| < 10 | CN(CCS(=O)(=O)O)C(=O)[C@@H]1Cc2ccc(cc2)OCC(=O)N[C@@H](Cc2cccs2)C(=O)N[C@H](Cc2ccc(-c3ccccc3)cc2)C(=O)N[C@@H](CCc2ccccc2)C(=O)N1 [Compound 605] |  |
| < 10 | O=C1COc2ccc(cc2)C[C@@H](C(=O)N(CCS(=O)(=O)O)C(CO)(CO)CO)NC(=O)[C@H](CCc2ccccc2)NC(=O)[C@@H](Cc2ccc(-c3ccccc3)cc2)NC(=O)[C@H](Cc2ccncc2)N1 [Compound 606] |  |
| 10 to 30 | O=C1COc2ccc(cc2)C[C@@H](C(=O)NCCS(=O)(=O)O)NC(=O)[C@H](CCc2ccccc2)NC(=O)[C@@H](Cc2ccc(-c3ccccc3)cc2)NC(=O)[C@H](Cc2ccc(-c3ccccc3)cc2)N1 [Compound 608] |  |
| 10 to 30 | O=C1COc2ccc(cc2)C[C@@H](C(=O)NCS(=O)(=O)O)NC(=O)[C@H](Cc2ccccc2F)NC(=O)[C@@H](Cc2ccc(-c3ccccc3)cc2)NC(=O)[C@H](Cc2cccs2)N1 [Compound 612] |  |
| > 100 | COC(=O)[C@@H]1Cc2ccc(cc2)OCC(=O)N[C@@H](Cc2cccs2)C(=O)N[C@H](Cc2ccc(-c3ccccc3)cc2)C(=O)N[C@@H](CCc2ccccc2)C(=O)N1 [Compound 615] |  |
| < 10 | O=C1COc2ccc(cc2)C[C@@H](C(=O)NCS(=O)(=O)O)NC(=O)[C@H](CCc2ccccc2)NC(=O)[C@@H](Cc2ccc(-c3ccccc3)cc2)NC(=O)[C@H](Cc2ccc(-c3ccncc3)cc2)N1 [Compound 617] |  |
| < 10 | O=C1COc2ccc(cc2)C[C@@H](C(=O)N[C@H](CCc2ccccc2)C(=O)O)NC(=O)[C@H](CCc2ccccc2)NC(=O)[C@@H](Cc2ccc(-c3ccccc3)cc2)NC(=O)[C@H](Cc2ccncc2)N1 [Compound 619] |  |
|  | CN(C(=O)[C@@H]1Cc2ccc(cc2)OCC(=O)N[C@@H](Cc2cccs2)C(=O)N[C@H](Cc2ccc(-c3ccccc3)cc2)C(=O)N[C@@H](CCc2ccccc2)C(=O)N1)[C@@H](Cc1ccccc1)C(=O)O [Compound 621] | < 10 |
| < 10 | O=C1COc2ccc(cc2)C[C@@H](C(=O)N[C@@H](CCc2ccccc2)C(=O)O)NC(=O)[C@H](CCc2ccccc2)NC(=O)[C@@H](Cc2ccc(-c3ccccc3)cc2)NC(=O)[C@H](Cc2ccc(-c3ccncc3)cc2)N1 [Compound 623] |  |
| < 10 | O=C1COc2ccc(cc2)C[C@@H](C(=O)N[C@H](CCc2ccccc2)C(=O)O)NC(=O)[C@H](CCc2ccccc2)NC(=O)[C@@H](Cc2ccc(-c3ccccc3)cc2)NC(=O)[C@H](Cc2ccc(-c3ccncc3)cc2)N1 [Compound 624] |  |
| < 10 | O=C1COc2ccc(cc2)C[C@@H](C(=O)O)NC(=O)[C@H](Cc2ccccc2F)NC(=O)[C@@H](Cc2ccc(-c3ccccc3)cc2)NC(=O)[C@H](Cc2cccs2)N1 [Compound 625] |  |
| > 100 | O=C1COc2ccc(cc2)C[C@@H](C(=O)O)NC(=O)[C@H](Cc2cccc(F)c2)NC(=O)[C@@H](Cc2ccc(-c3ccccc3)cc2)NC(=O)[C@H](Cc2cccs2)N1 [Compound 626] |  |
| > 100 | O=C1COc2ccc(cc2)C[C@@H](C(=O)O)NC(=O)[C@H](Cc2ccc(F)cc2)NC(=O)[C@@H](Cc2ccc(-c3ccccc3)cc2)NC(=O)[C@H](Cc2cccs2)N1 [Compound 627] |  |
| 10 to 30 | COc1ccc(C[C@@H]2NC(=O)[C@@H](Cc3ccc(-c4ccccc4)cc3)NC(=O)[C@H](Cc3cccs3)NC(=O)COc3ccc(cc3)C[C@@H](C(=O)O)NC2=O)cc1 [Compound 630] |  |
| < 10 | O=C1COc2ccc(cc2)C[C@@H](C(=O)O)NC(=O)[C@H](Cc2ccc(-c3ccccn3)cc2)NC(=O)[C@@H](Cc2ccc(-c3ccccc3)cc2)NC(=O)[C@H](Cc2cccs2)N1 [Compound 632] |  |
| < 10 | O=C1COc2ccc(cc2)C[C@@H](C(=O)O)NC(=O)[C@H](Cc2ccc(-c3cccnc3)cc2)NC(=O)[C@@H](Cc2ccc(-c3ccccc3)cc2)NC(=O)[C@H](Cc2cccs2)N1 [Compound 633] |  |
| < 10 | O=C1COc2ccc(cc2)C[C@@H](C(=O)O)NC(=O)[C@H](Cc2ccc(-c3ccncc3)cc2)NC(=O)[C@@H](Cc2ccc(-c3ccccc3)cc2)NC(=O)[C@H](Cc2cccs2)N1 [Compound 634] |  |
| < 10 | CC(C)(C)c1ccc(C[C@@H]2NC(=O)[C@@H](Cc3ccc(-c4ccccc4)cc3)NC(=O)[C@H](Cc3cccs3)NC(=O)COc3ccc(cc3)C[C@@H](C(=O)O)NC2=O)cc1 [Compound 635] |  |
| < 10 | O=C1COc2ccc(cc2)C[C@@H](C(=O)O)NC(=O)[C@H](Cc2ccc(F)cc2)NC(=O)[C@@H](Cc2ccc(-c3ccccc3)cc2)NC(=O)[C@H](Cc2ccncc2)N1 [Compound 637] |  |
| < 10 | COc1cccc(C[C@@H]2NC(=O)[C@@H](Cc3ccc(-c4ccccc4)cc3)NC(=O)[C@H](Cc3ccncc3)NC(=O)COc3ccc(cc3)C[C@@H](C(=O)O)NC2=O)c1 [Compound 638] |  |

Reference: patent publication US8338565B2, “Macrocyclic compounds for inhibition of tumor necrosis factor alpha” (Ensemble Therapeutics Corporation, priority 2008, dated 2012)
